The values that follow are results of earlier work, collected in patent US6432967B1 (Mayo Foundation for Medical Education & Research, priority 1995, dated 2002).

The conditions of the data set: in vivo.

Each structure is given as a SMILES string.

Turning to `Nc1ccc(O)c(C(=O)O)c1` [5-ASA, 5-aminosalicylate], the fecal excretion result is “approximately 25%”.
